Test results: ChEMBL document CHEMBL5058642, “Data for DCP probe TP-051” (2022); call rule not given here

Tests used:
[1] = target: Histamine H1 receptor (Homo sapiens) (UniProt P35367); settings: Compound concentration 10.0 uM
[2] = target: Adenosine receptor A2a (Homo sapiens) (UniProt P29274); settings: Compound concentration 10.0 uM
[3] = organism: Rattus norvegicus; assay: Adrenergic α1, Non-selective Eurofins-Panlabs radioligand binding assay; type: protein assay; settings: Compound concentration 10.0 uM
[4] = organism: Homo sapiens; assay: Somatostatin sst2 Eurofins-Panlabs radioligand binding assay; parameters: ligand concentration 0.03 nM; settings: Compound concentration 10.0 uM
[5] = target: Voltage-dependent N-type calcium channel subunit alpha-1B (Homo sapiens) (UniProt Q00975); assay: Inhibition of Calcium Channel N-Type at 10 µM in the Eurofins-Panlabs radioligand binding assay (Eurofins_assay_216000); settings: Rattus norvegicus; Compound concentration 10.0 uM
[6] = target: Mu-type opioid receptor (Homo sapiens) (UniProt P35372); settings: Compound concentration 10.0 uM
Chain of Mu-type opioid receptor (Homo sapiens) (P35372 whole entry): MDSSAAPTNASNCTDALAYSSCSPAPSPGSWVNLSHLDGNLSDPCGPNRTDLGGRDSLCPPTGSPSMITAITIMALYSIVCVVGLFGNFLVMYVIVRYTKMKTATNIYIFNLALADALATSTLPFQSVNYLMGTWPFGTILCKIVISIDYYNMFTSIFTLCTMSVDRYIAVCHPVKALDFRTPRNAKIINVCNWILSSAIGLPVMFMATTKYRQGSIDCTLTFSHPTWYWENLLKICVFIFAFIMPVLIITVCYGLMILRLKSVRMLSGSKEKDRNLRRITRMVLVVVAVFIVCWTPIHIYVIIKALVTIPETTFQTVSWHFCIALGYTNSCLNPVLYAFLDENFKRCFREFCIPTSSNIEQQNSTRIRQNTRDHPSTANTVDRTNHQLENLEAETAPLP

[7] = target: T1, Muscarinic acetylcholine receptor M1 (Homo sapiens) (UniProt P11229); settings: Compound concentration 10.0 uM
T1 sequence (whole entry): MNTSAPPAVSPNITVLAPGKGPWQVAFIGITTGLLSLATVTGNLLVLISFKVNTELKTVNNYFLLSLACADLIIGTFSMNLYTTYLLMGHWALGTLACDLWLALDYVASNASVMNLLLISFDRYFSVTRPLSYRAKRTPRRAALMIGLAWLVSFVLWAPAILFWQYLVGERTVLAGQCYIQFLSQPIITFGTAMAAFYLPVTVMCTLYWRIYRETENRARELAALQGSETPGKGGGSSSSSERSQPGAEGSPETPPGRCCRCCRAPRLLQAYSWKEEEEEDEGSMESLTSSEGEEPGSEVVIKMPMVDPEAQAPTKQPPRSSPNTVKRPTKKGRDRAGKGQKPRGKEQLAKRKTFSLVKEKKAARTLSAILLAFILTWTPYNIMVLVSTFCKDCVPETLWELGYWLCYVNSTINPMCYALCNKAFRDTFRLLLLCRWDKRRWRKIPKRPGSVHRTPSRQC

[8] = target: Histamine H4 receptor (Homo sapiens) (UniProt Q9H3N8); settings: Compound concentration 10.0 uM
[9] = target: Beta-2 adrenergic receptor (Homo sapiens, UniProt P07550); settings: Compound concentration 10.0 uM
[10] = target: Histamine H3 receptor (Homo sapiens) (UniProt Q9Y5N1); settings: Compound concentration 10.0 uM
Chain of Histamine H3 receptor (Homo sapiens) (Q9Y5N1 whole entry): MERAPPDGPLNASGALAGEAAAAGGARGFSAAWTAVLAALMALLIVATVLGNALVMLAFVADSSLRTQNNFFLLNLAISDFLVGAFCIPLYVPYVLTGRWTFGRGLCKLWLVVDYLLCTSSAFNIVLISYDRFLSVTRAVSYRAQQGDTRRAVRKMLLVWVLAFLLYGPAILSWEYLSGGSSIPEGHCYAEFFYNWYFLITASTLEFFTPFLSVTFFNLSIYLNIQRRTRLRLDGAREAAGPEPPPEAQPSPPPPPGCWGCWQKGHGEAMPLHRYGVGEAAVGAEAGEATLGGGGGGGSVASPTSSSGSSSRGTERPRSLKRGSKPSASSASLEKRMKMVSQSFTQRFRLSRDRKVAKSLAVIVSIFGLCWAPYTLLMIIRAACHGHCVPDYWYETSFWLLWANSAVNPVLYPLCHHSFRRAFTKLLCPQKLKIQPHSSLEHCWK

[11] = target: T2, 5-hydroxytryptamine receptor 3A (Homo sapiens) (UniProt P46098); settings: Compound concentration 10.0 uM
T2 sequence (whole entry): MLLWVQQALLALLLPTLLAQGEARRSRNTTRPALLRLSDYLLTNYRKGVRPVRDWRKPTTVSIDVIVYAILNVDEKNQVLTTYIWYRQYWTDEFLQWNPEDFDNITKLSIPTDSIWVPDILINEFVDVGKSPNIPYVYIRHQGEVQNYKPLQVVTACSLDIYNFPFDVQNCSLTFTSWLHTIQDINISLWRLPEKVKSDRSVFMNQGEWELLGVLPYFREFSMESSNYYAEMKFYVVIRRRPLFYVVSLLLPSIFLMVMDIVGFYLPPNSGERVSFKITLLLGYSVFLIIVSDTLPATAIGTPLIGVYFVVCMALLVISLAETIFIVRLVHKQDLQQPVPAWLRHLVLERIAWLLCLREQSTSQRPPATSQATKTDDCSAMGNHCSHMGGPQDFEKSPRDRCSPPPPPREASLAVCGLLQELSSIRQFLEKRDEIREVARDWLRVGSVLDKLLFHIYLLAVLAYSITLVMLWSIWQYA

[12] = target: Endothelin receptor type B (Homo sapiens) (UniProt P24530); settings: Compound concentration 10.0 uM
Chain of Endothelin receptor type B (Homo sapiens) (P24530 whole entry): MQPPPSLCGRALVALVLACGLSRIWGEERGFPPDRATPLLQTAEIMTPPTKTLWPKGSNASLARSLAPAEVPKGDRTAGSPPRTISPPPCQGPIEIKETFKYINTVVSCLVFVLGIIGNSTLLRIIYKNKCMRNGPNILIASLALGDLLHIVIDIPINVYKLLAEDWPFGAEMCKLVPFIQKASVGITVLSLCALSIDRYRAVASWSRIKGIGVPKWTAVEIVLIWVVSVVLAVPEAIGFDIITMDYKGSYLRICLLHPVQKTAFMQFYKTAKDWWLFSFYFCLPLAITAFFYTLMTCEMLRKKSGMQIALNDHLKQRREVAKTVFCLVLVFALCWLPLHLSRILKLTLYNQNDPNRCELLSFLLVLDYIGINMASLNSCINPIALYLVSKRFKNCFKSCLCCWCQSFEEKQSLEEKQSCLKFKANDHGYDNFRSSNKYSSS

[13] = target: Vasopressin V1b receptor (Homo sapiens) (UniProt P47901); assay: Inhibition of Vasopressin V1B at 10 µM in the Eurofins-Panlabs radioligand binding assay (Eurofins_assay_287560); parameters: ligand concentration 1 nM; settings: Compound concentration 10.0 uM
Chain of Vasopressin V1b receptor (Homo sapiens) (P47901 whole entry): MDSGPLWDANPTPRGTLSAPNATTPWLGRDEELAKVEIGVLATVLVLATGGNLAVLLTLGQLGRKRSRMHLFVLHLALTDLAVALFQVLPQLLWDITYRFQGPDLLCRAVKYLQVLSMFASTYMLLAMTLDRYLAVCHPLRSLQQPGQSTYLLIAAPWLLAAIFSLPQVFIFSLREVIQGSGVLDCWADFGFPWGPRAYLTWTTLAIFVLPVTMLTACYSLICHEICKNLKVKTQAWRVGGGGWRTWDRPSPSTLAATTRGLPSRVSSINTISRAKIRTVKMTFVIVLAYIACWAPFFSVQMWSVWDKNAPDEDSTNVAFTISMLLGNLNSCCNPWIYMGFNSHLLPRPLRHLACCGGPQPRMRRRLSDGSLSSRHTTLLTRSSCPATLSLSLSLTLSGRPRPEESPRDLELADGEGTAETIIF

[14] = target: Glutamate NMDA receptor (Rattus norvegicus) (UniProt P35439+Q00959+Q00960+Q00961+Q62645+Q8VHN2+Q9R1M7); settings: Compound concentration 10.0 uM
[15] = target: GABA-A receptor; anion channel (Rattus norvegicus) (UniProt O09028+P15431+P18506+P18508+P19969+P20236+P23574+P23576+P28471+P28473+P30191+P62813+P63079+P63138+Q91ZM7+Q9ES14); settings: Compound concentration 10.0 uM
[16] = target: Histamine H2 receptor (Homo sapiens) (UniProt P25021); settings: Compound concentration 10.0 uM
Chain of Histamine H2 receptor (Homo sapiens) (P25021 whole entry): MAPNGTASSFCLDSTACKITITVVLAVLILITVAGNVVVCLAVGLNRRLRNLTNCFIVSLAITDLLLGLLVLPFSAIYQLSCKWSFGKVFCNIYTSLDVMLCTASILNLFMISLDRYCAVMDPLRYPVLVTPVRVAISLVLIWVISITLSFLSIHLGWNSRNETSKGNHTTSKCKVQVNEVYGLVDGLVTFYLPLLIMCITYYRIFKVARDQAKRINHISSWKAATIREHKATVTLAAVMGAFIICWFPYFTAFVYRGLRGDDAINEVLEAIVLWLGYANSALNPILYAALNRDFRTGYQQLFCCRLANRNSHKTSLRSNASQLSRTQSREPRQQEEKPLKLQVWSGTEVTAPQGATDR

[17] = organism: Rattus norvegicus; assay: Potassium Channel [SKCA] Eurofins-Panlabs radioligand binding assay; parameters: ligand concentration 0.005 nM; settings: Compound concentration 10.0 uM
[18] = target: Beta-1 adrenergic receptor (Homo sapiens) (UniProt P08588); settings: Compound concentration 10.0 uM
Chain of Beta-1 adrenergic receptor (Homo sapiens) (P08588 whole entry, looked up): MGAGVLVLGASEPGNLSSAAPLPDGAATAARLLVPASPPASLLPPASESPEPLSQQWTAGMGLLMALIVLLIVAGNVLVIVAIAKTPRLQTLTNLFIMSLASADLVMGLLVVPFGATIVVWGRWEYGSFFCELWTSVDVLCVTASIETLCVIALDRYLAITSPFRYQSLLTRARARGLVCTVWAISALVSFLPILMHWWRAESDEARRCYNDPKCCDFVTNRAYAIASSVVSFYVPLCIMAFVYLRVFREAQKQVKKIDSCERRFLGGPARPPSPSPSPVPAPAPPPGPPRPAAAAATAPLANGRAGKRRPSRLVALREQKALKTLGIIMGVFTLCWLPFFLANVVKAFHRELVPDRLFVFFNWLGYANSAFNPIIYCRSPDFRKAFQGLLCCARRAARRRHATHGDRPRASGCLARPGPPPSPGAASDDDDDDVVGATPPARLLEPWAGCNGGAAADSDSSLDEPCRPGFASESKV

[19] = target: Type-1 angiotensin II receptor (Homo sapiens) (UniProt P30556); assay: Angiotensin AT1 Eurofins-Panlabs radioligand binding assay; settings: Compound concentration 10.0 uM
[20] = target: Histamine H1 receptor (Homo sapiens) (UniProt P35367); settings: Compound concentration 10.0 uM; remark: listed apart in the source
[21] = target: 5-hydroxytryptamine receptor 4 (Homo sapiens) (UniProt Q13639); assay: Inhibition of Serotonin (5-Hydroxytryptamine) 5-HT4 at 10 µM in the Eurofins-Panlabs radioligand binding assay (Eurofins_assay_272000); settings: Cavia porcellus; Compound concentration 10.0 uM
Chain of 5-hydroxytryptamine receptor 4 (Homo sapiens) (Q13639 whole entry): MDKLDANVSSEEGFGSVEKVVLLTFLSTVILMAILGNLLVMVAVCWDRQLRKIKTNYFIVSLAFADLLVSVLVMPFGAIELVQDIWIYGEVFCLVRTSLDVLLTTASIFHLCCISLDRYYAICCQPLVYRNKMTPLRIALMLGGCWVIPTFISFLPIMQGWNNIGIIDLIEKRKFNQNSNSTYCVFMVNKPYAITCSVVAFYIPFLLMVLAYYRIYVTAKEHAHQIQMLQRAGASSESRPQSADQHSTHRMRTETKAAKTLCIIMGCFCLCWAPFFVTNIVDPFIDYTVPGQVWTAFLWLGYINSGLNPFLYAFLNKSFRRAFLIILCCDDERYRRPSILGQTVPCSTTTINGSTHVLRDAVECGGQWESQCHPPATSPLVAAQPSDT

[22] = organism: Rattus norvegicus; settings: Compound concentration 10.0 uM
[23] = target: D(2) dopamine receptor (Homo sapiens) (UniProt P14416); settings: Compound concentration 10.0 uM
[24] = target: voltage-gated sodium channel, site 2 (Rattus norvegicus, UniProt F1LQQ7+O08562+O88420+O88457+P04774+P04775+P08104+P15389+P15390+Q62968); assay: Inhibition of Sodium Channel, Site 2 at 10 µM in the Eurofins-Panlabs radioligand binding assay (Eurofins_assay_279510); type: protein assay; parameters: ligand concentration 5 nM, non-specific ligand with concentration 100 µM Veratridine, incubation time 60 min, incubation temperature 37 °C; settings: male, Wistar, rat whole brain (except cerebellum) membranes, probe [3H] Batrachotoxinin, 5 nM, compound concentration 10 uM
[25] = target: 5-hydroxytryptamine receptor 1B (Homo sapiens) (UniProt P28222); settings: Compound concentration 10.0 uM
[26] = target: Adenosine receptor A1 (Homo sapiens) (UniProt P30542); settings: Compound concentration 10.0 uM
Chain of Adenosine receptor A1 (Homo sapiens) (P30542 whole entry): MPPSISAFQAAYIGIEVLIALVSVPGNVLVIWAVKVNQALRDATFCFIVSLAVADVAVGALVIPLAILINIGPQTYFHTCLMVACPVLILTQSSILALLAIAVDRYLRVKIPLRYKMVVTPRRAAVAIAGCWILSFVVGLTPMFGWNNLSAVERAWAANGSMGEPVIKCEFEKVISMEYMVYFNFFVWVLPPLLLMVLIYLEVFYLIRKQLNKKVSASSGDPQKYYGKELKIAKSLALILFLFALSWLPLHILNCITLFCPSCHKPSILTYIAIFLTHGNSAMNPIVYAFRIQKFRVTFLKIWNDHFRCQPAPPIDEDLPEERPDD

[27] = target: 5-hydroxytryptamine receptor 1D (Homo sapiens) (UniProt P28221); settings: Compound concentration 10.0 uM
Chain of 5-hydroxytryptamine receptor 1D (Homo sapiens) (P28221 whole entry): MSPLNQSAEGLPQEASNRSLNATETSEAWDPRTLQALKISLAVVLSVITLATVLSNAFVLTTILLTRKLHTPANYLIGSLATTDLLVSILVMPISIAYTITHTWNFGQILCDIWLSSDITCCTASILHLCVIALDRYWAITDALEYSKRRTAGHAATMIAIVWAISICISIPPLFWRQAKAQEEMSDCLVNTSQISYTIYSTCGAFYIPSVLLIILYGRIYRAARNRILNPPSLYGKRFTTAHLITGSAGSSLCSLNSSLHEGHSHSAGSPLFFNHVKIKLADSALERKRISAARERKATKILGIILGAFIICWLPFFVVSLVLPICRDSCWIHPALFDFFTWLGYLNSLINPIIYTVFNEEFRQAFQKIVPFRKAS

[28] = target: Alpha-2A adrenergic receptor (Homo sapiens) (UniProt P08913); settings: Compound concentration 10.0 uM
[29] = target: B2 bradykinin receptor (Homo sapiens) (UniProt P30411); assay: Bradykinin B2 Eurofins-Panlabs radioligand binding assay; settings: Compound concentration 10.0 uM
Chain of B2 bradykinin receptor (Homo sapiens) (P30411 whole entry): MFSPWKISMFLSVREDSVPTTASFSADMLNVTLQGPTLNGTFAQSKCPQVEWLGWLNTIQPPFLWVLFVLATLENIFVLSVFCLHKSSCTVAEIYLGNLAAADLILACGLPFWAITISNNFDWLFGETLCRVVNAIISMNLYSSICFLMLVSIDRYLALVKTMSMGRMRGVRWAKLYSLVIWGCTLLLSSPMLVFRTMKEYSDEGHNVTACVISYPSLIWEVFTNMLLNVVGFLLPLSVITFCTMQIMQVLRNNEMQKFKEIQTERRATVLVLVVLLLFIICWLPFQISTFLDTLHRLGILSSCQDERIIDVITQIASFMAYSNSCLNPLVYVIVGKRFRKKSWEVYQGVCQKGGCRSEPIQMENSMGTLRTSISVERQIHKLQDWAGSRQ

[30] = organism: Mus musculus; assay: Inhibition of Phorbol Ester at 10 µM in the Eurofins-Panlabs radioligand binding assay (Eurofins_assay_264500); parameters: ligand concentration 3 nM; settings: Compound concentration 10.0 uM

Chain of Histamine H1 receptor (Homo sapiens) (P35367 whole entry): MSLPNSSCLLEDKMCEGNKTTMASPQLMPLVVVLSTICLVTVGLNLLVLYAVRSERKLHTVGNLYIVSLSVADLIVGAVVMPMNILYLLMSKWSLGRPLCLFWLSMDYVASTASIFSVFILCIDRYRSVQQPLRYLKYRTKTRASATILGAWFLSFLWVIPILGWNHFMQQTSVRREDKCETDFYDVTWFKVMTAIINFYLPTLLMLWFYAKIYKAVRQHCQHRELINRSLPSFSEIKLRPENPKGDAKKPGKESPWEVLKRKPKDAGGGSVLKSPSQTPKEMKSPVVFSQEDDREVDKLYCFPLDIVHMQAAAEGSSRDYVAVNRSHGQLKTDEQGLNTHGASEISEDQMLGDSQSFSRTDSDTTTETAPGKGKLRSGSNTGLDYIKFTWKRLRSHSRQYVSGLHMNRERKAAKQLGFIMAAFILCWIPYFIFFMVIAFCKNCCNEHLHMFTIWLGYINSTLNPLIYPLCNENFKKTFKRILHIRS
Chain of Adenosine receptor A2a (Homo sapiens) (P29274 whole entry): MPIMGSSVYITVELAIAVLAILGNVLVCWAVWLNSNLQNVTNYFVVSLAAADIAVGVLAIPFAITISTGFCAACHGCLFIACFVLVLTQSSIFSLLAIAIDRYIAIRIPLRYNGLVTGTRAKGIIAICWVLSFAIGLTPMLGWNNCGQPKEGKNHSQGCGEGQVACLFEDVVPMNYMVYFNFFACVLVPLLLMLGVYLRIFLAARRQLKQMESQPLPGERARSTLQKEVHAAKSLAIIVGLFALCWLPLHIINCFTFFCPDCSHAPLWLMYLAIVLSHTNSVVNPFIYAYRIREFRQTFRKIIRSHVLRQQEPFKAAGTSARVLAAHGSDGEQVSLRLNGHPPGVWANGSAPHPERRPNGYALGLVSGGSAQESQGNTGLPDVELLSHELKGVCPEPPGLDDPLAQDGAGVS

Compound | inhibition [1] | inhibition [2] | inhibition [3] | inhibition [4] | inhibition [5] | inhibition [6] | inhibition [7] | inhibition [8] | inhibition [9] | inhibition [10] | inhibition [11] | inhibition [12] | inhibition [13] | inhibition [14] | inhibition [15] | inhibition [16] | inhibition [17] | inhibition [18] | inhibition [19] | inhibition [20] | other results
Cc1cc(OC2CCS(=O)(=O)CC2)cc(C)c1-c1cccc(COc2ccc(CCC(=O)O)c(F)c2)c1 | 12% | 5% | -2% | 5% | -4% | 5% | 15.8% | 10.8% | 3% | 21.1% | 6.06% | 0% | -4% | 8% | 23.7% | 26% | -5% | 5% | 14% | -7% | inhibition [21]: 8%; inhibition [22]: -4%; inhibition [23]: -2%; inhibition at 60 min, 10 µM [24]: 6% (not active); inhibition [25]: 19.3%; inhibition [26]: -1%; inhibition [27]: 35.8%; inhibition [28]: 13%; inhibition [29]: 7%; inhibition [30]: -9%
Cc1cc(OC2CCS(=O)(=O)CC2)cc(C)c1-c1cccc(COc2ccc(C(=O)O)c(F)c2)c1 | -2.18% | 10% | -1% | -6% | -9% | 10% | -1.5% | 17.4% | -7% | 6.7% | -5.96% | 15% | -4% | 7% | 19.5% | 2% | 1% | -4% | 1% | 2% | inhibition [21]: -8%; inhibition [22]: 7%; inhibition [23]: -4%; inhibition at 60 min, 10 µM [24]: -5% (not active); inhibition [25]: 23.2%; inhibition [26]: -4%; inhibition [27]: 29.5%; inhibition [28]: 13.1%; inhibition [29]: -4%; inhibition [30]: -3%
